Measured values from publication PMC4779956 (Journal of medicinal chemistry, 2015).
Values belong to the compound of their own block, whether it stands above or below them.

Legend:
ERα [1] = target: T1, ERα (Homo sapiens, UniProt P03372); experiment: ERE-luciferase reporter assay; format: cell-based; conditions: for Efficacy (% E2): MCF-7:ws8 cells, normalized to Ctrl (0%) and E2 1 nM (100%)
T1 sequence (P03372 1-595): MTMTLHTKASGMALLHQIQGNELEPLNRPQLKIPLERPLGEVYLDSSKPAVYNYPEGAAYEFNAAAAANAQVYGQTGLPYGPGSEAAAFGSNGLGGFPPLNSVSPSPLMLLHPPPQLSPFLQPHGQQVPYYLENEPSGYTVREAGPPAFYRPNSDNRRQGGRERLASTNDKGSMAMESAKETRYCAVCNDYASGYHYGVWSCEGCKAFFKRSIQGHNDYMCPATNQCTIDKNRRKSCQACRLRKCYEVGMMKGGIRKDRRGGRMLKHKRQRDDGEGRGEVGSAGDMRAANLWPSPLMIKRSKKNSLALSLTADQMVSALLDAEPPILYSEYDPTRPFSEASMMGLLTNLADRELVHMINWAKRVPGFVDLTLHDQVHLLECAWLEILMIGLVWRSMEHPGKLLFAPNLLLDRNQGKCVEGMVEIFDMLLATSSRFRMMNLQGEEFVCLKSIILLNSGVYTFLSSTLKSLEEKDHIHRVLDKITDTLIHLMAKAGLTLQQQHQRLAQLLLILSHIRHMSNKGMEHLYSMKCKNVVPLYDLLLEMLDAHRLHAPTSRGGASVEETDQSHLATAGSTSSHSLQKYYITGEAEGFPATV

ERα [2] = target: T1, ERα; experiment: Antagonism of E2-induced ERE-luciferase activation; format: cell-based; conditions: MCF-7:ws8, in presence of 0.1 nM E2, ShERPA 100-500 nM, 18 h
T47D:A18/PKCα tumors [3] = conditions: T47D:A18/PKCα model; cited from earlier work
ERα-LBD/SRC3 complex [4] = target: T2, ERα-LBD/SRC3 complex (Homo sapiens, UniProt P03372); experiment: TR-FRET SRC3 titration; format: biochemical; conditions: 20 μM ligand
T2 sequence (P03372 311-547 limits assumed): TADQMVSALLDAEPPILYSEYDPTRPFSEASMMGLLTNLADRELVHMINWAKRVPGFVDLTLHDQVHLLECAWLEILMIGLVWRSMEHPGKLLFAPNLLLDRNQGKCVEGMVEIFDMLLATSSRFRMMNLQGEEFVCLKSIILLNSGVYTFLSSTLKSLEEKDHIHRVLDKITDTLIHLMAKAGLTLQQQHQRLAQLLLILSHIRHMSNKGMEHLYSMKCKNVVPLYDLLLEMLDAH
T2 sequence (Q9Y6Q9 627-829 partner limits assumed): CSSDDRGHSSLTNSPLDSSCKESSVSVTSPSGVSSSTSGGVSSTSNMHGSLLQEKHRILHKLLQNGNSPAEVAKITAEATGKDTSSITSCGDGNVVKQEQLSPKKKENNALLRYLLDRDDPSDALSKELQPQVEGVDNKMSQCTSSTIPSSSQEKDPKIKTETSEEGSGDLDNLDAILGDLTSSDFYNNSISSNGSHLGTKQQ

T47D:A18-TAM1 = T47D:A18-TAM1 model; cited from earlier work
ERα-LBD/SRC3 complex [5] = target: T2, ERα-LBD/SRC3 complex; experiment: TR-FRET ligand titration in presence of 10 nM E2; format: biochemical; conditions: in presence of 10 nM E2, 100 nM SRC3
[6] = T47D:A18/PKCα xenograft study; cited from earlier work
MCF-7:5C cells = experiment: MCF-7:5C cell viability assay; format: cell-based, human
[7] = Uterine weight in xenograft study; format: in vivo, mice; conditions: T47D:A18/PKCα xenograft study, 100 mg/kg oral daily
T47D:A18/PKCα tumors [8] = experiment: T47D:A18/PKCα tamoxifen-resistant xenograft; format: in vivo, mice; conditions: 100 mg/kg oral gavage daily, within two weeks

- Efficacy (% E2) (ERα [1]): 70 % E2
SMILES: Oc1ccc2c(-c3ccc(F)cc3)c(Oc3ccc(Cl)cc3)sc2c1 [Compound 30b, 2-(4-chlorophenoxy)-3-(4-fluorophenyl)benzo[b]thiophen-6-ol]
- Antagonism of E2 induced ERE activation (ERα [2]): dose dependent reduction in E2 luciferase activity

SMILES: Oc1ccc(Oc2sc3cc(O)ccc3c2-c2ccc(F)cc2)cc1 [Compound 30a, 3-(4-fluorophenyl)-2-(4-hydroxyphenoxy)benzo[b]thiophen-6-ol]
- Xenograft tumor regression (T47D:A18/PKCα tumors [3]): dramatic regression
- Maximal FRET signal relative to E2-liganded ERα-LBD/SRC3 complex (ERα-LBD/SRC3 complex [4]): less than 50%
- Efficacy (% E2) (ERα [1]): 60 % E2
- Antagonism of E2 induced ERE activation (ERα [2]): dose dependent reduction in E2 luciferase activity
- Xenograft tumor regression (T47D:A18-TAM1): dramatic regression
- Effect on FRET signal on ligand titration (ERα-LBD/SRC3 complex [5]): reduced FRET signal
- Uterine weight [6]: not accompanied by a significant increase in uterine weight

- Efficacy (% E2) (ERα [1]): 100 % E2
SMILES: O=C(c1ccc(C(F)(F)F)cc1)c1c(-c2ccc(F)cc2)sc2cc(O)ccc12 [Compound 14b, (2-(4-fluorophenyl)-6-hydroxybenzo[b]thiophen-3-yl)(4-(trifluoromethyl)phenyl)methanone]

- Efficacy (% E2) (ERα [1]): 100 % E2
SMILES: Oc1ccc2c(-c3ccc(F)cc3)c(Oc3ccc(F)c(F)c3)sc2c1 [Compound 30d, 2-(3,4-difluorophenoxy)-3-(4-fluorophenyl)benzo[b]thiophen-6-ol]

- Efficacy (% E2) (ERα [1]): 100 % E2
SMILES: Oc1ccc(Oc2c(-c3ccc(F)cc3)sc3cc(O)ccc23)cc1 [Compound 19, 2-(4-fluorophenyl)-3-(4-hydroxyphenoxy)benzo[b]thiophen-6-ol]

SMILES: Cc1ccc(C(=O)c2c(-c3ccc(O)cc3)sc3cc(O)ccc23)cc1 [Compound 14a]
- Efficacy (% E2) (ERα [1]): 100 % E2

- Efficacy (% E2) (ERα [1]): 100 % E2
SMILES: CS(=O)(=O)c1ccc(C(=O)c2sc3cc(O)ccc3c2-c2ccc(F)cc2)cc1 [Compound 21a, (3-(4-fluorophenyl)-6-hydroxybenzo[b]thiophen-2-yl)(4-(methylsulfonyl)phenyl)methanone]

- Efficacy (% E2) (ERα [1]): 100 % E2
SMILES: O=C(c1ccc(O)cc1)c1sc2cc(O)ccc2c1-c1ccc(F)cc1 [Compound 21b, (3-(4-fluorophenyl)-6-hydroxybenzo[b]thiophen-2-yl)(4-hydroxyphenyl)methanone]

SMILES: C[C@]12CC[C@@H]3c4ccc(O)cc4CC[C@H]3[C@@H]1CC[C@@H]2O [Compound E2, estradiol, reference compound]
- Reduction of cell viability compared to vehicle control (MCF-7:5C cells; 9 days): approximately 60%

- Efficacy (% E2) (ERα [1]): 100 % E2
SMILES: Oc1ccc2c(-c3ccc(F)cc3)c(Oc3ccc(F)cc3)sc2c1 [Compound 30c, 2-(4-fluorophenoxy)-3-(4-fluorophenyl)benzo[b]thiophen-6-ol]

- Efficacy (% E2) (ERα [1]): 100 % E2
SMILES: N#Cc1ccc(C(=O)c2sc3cc(O)ccc3c2-c2ccc(F)cc2)cc1 [Compound 26b, 4-(3-(4-fluorophenyl)-6-hydroxybenzo[b]thiophene-2-carbonyl)benzonitrile]

- Efficacy (% E2) (ERα [1]): 100 % E2
SMILES: O=C(c1ccc(C(F)(F)F)cc1)c1c(-c2ccc(Cl)cc2)sc2cc(O)ccc12 [Compound 14c, (2-(4-chlorophenyl)-6-hydroxybenzo[b]thiophen-3-yl)(4-(trifluoromethyl)phenyl)methanone]

- Efficacy (% E2) (ERα [1]): 85 % E2
SMILES: O=C(c1ccc(C(F)(F)F)cc1)c1sc2cc(O)ccc2c1-c1ccc(F)cc1 [Compound 26a, (3-(4-fluorophenyl)-6-hydroxybenzo[b]thiophen-2-yl)(4-(trifluoromethyl)phenyl)methanone]
- Uterine weight versus vehicle control [7]: no significant increase in uterine weight compared to vehicle control mice
- Tumor size versus control tumors (T47D:A18/PKCα tumors [8]): half the size of control tumors

SMILES: C#Cc1ccc(C(=O)c2sc3cc(O)ccc3c2-c2ccc(F)cc2)cc1 [Compound 23, (4-ethynylphenyl)(3-(4-fluorophenyl)-6-hydroxybenzo[b]thiophen-2-yl)methanone]
- Maximal FRET signal relative to E2-liganded ERα-LBD/SRC3 complex (ERα-LBD/SRC3 complex [4]): less than 50%
- EC50 (ERα [1]): 5 nM
- Efficacy (% E2) (ERα [1]): 65 % E2
- Antagonism of E2 induced ERE activation (ERα [2]): dose dependent reduction in E2 luciferase activity
- Tumor size versus control tumors (T47D:A18/PKCα tumors [8]): half the size of control tumors
- Effect on FRET signal on ligand titration (ERα-LBD/SRC3 complex [5]): reduced FRET signal

- Efficacy (% E2) (ERα [1]): 100 % E2
SMILES: O=C(c1sc2cc(O)ccc2c1-c1ccc(F)cc1)C1CCCCC1 [Compound 21g, Cyclohexyl(3-(4-fluorophenyl)-6-hydroxybenzo[b]thiophen-2-yl)methanone]
- Inhibition of cell growth relative to E2 % (MCF-7:5C cells; 10 nM, 9 day, control 0 %, E2 100 %, 0.01 µM): 100%
